The first assay has as its system IGF-1 induced AKT phosphorylation in A549 cells. Description: IGF-1 induced AKT phosphorylation assay (A549 cell assay). In kind it is cell-based. The conditions noted are these: Homo sapiens, A549, read-out: average IC50 in the A549 cell assay. From the text:
[Determination of IC50 Values of Compounds in Cell Based Assays of PI3K Activity] 96-well collagen treated clear bottom/black sided Costar plates were purchased from CORNING LIFE SCIENCES (Corning, N.Y.; at.#3904). Gibco RPMI medium (Cat.#11875), Biosource anti-phospho-AKT([…]) antibody (Cat.#44-621G) and recombinant IGF-1 (Cat.#PHG0074) were purchased from INVITROGEN (Carlsbad, Calif.). The secondary donkey anti-rabbit IgG horse radish peroxidase conjugate (Cat. #N[…]) and ECL chemiluminesence reagent (Cat.#RPN2209) were purchased from […] (Buckinghamshire, UK). Cell culture tested bovine serum albumin solution (35% in DPBS; Cat.#A7979) and all other chemicals were purchased from SIGMA (St. Louis, Mo.). The Wallac Victor2 1420 Multilabel HTS Counter was purchased from […] (Wellesley, Mass.) […] All wells (except no IGF-1 controls) were then treated with 25 ng/ml IGF-1 for 10 minutes at 37° C. in a 5% CO2 incubator. Following removal of the supernatants and washing with the wells with TBS (50 mM Tris pH 8.0 containing 138 mM NaCL and 27 mM KCl), 200 µL of 3.7% formaldehyde in TBS was added to each well, and the plate was incubated at 4° C. for 10 minutes. Supernatants were once again removed and replaced with 50 μL Methanol (-20° C.) and the plate incubated at 4° C. for 5 minutes. 200 μL of 0.1% BSA in TBS was then added to each well and the plate incubated at room temperature for 1⁄2 hour. Supernatants were removed and 50 μL of a solution comprising the primary anti-phospho-AKT([…]) antibody diluted 1:250 in TBS containing 0.1% BSA was added to each well (except control/background wells). The plate was then incubated for 11⁄2 hour at room temperature. Supernatants were removed, each well was washed 3 times with 200 μL TBS, and 100 μL of a solution containing the secondary donkey anti-rabbit IgG antibody HRP-conjugate diluted 1:100 in TBS-T (TBS containing 0.1% triton). Plates were then incubated for 1 hour at room temperature. After removing the secondary antibody, each well was washed 6 times with cold TBS-T, 100 μL of ECL was added to each well, and the plate was placed on an orbital shaker for 1 minute. The plates were then read on a Wallac Victor2 1420 Multilabel HTS Counter using the luminometry window (maximum light detection is measured at […]). IC50 values were determined from the inhibition curve.
As for `COc1c(OCCCN2CCOCC2)ccc2c1N=C(NC(=O)c1cnc(N)nc1)N1CCN=C21` [Example 13, 2-amino-N-[7-methoxy-8-(3-morpholin-4-ylpropoxy)-2,3-dihydroimidazo[1,2-c]quinazolin-5-yl]pyrimidine-5-carboxamide], the half-maximal inhibitory concentration (IC50) was under 100 nM.

The same assay, now with this note: Homo sapiens; A549 cells, 25 ng/ml IGF-1, phospho-AKT(Ser 473); read-out: average IC50 in the A549 cell assay.
Take `COc1c(OCCCN2CCOCC2)ccc2c1N=C(NC(=O)c1cncnc1)N1CCN=C21` [Example 1, N-[7-methoxy-8-(3-morpholin-4-ylpropoxy)-2,3-dihydroimidazo[1,2-c]quinazolin-5-yl]pyrimidine-5-carboxamide]: the half-inhibitory concentration (IC50) lay in the range of 100 to 1000 nM.

Take `COc1c(OCCCN2C[C@@H](C)O[C@@H](C)C2)ccc2c1N=C(NC(=O)c1cccnc1)N1CCN=C21` [Example 2, N-(8-{3-[(2R,6S)-2,6-dimethylmorpholin-4-yl]propoxy}-7-methoxy-2,3-dihydroimidazo[1,2-c]quinazolin-5-yl)nicotinamide]: the IC50 was under 100 nM.

Turning to `COc1c(OCCCN2C[C@@H](C)O[C@@H](C)C2)ccc2c1N=C(NC(=O)c1sc(C)nc1C)N1CCN=C21` [Example 3, N-(8-{3-[(2R,6S)-2,6-dimethylmorpholin-4-yl]propoxy}-7-methoxy-2,3-dihydroimidazo[1,2-c]quinazolin-5-yl)-2,4-dimethyl-1,3-thiazole-5-carboxamide], the IC50 is under 100 nM.

On to `COc1c(OCCCN2CCOCC2)ccc2c1N=C(NC(=O)c1cnc(N)s1)N1CCN=C21` [Example 4, 2-amino-N-[7-methoxy-8-(3-morpholin-4-ylpropoxy)-2,3-dihydroimidazo[1,2-c]quinazolin-5-yl]-1,3-thiazole-5-carboxamide], for which the IC50 lay within 100 to 1000 nM.

Take `COc1c(OCCCN2CCOCC2)ccc2c1N=C(NC(=O)c1ccnc(N)c1)N1CCN=C21` [Example 5, 2-amino-N-[7-methoxy-8-(3-morpholin-4-ylpropoxy)-2,3-dihydroimidazo[1,2-c]quinazolin-5-yl]isonicotinamide]: the IC50 fell in the range of 100 to 1000 nM.

Take `COc1c(OCCCN2CCOCC2)ccc2c1N=C(NC(=O)c1sc(N)nc1C)N1CCN=C21` [Example 6, 2-amino-N-[7-methoxy-8-(3-morpholin-4-ylpropoxy)-2,3-dihydroimidazo[1,2-c]quinazolin-5-yl]-4-methyl-1,3-thiazole-5-carboxamide]: the half-maximal inhibitory concentration (IC50) is under 100 nM.

Consider `CCCc1nc(N)ncc1C(=O)NC1=Nc2c(ccc(OCCCN3CCOCC3)c2OC)C2=NCCN12` [Example 7, 2-amino-N-[7-methoxy-8-(3-morpholin-4-ylpropoxy)-2,3-dihydroimidazo[1,2-c]quinazolin-5-yl]-4-propylpyrimidine-5-carboxamide], for which the half-inhibitory concentration (IC50) was under 100 nM.

In the case of `CCN1CCOC(CCOc2ccc3c(c2OC)N=C(NC(=O)c2cccnc2)N2CCN=C32)C1` (centres unmarked) [Example 8, N-{8-[2-(4-ethylmorpholin-2-yl)ethoxy]-7-methoxy-2,3-dihydroimidazo[1,2-c]quinazolin-5-yl}nicotinamide], the IC50 was under 100 nM.

With `COc1c(OCCN(C)C)ccc2c1N=C(NC(=O)c1cncnc1)N1CCN=C21` [Example 9, N-{8-[2-(dimethylamino)ethoxy]-7-methoxy-2,3-dihydroimidazo[1,2-c]quinazolin-5-yl}pyrimidine-5-carboxamide], the IC50 was 100 to 1000 nM.

As for `COc1c(OCC(O)CN2CCOCC2)ccc2c1N=C(NC(=O)c1cccnc1)N1CCN=C21` (centres unmarked) [Example 16, N-[8-(2-hydroxy-3-morpholin-4-ylpropoxy)-7-methoxy-2,3-dihydroimidazo[1,2-c]quinazolin-5-yl]nicotinamide], the half-inhibitory concentration (IC50) was under 100 nM.

On to `COc1c(OCCCN2CCOC(CO)C2)ccc2c1N=C(NC(=O)c1cccnc1)N1CCN=C21` (centres unmarked) [Example 18, N-(8-{3-[2-(hydroxymethyl)morpholin-4-yl]propoxy}-7-methoxy-2,3-dihydroimidazo[1,2-c]quinazolin-5-yl)nicotinamide], for which the 50% inhibitory concentration (IC50) is under 100 nM.

Consider `COCCN1CCOC(COc2ccc3c(c2OC)N=C(NC(=O)c2cccnc2)N2CCN=C32)C1` (centres unmarked) [Example 22, N-(7-methoxy-8-{[4-(2-methoxyethyl)morpholin-2-yl]methoxy}-2,3-dihydroimidazo[1,2-c]quinazolin-5-yl)nicotinamide], for which the IC50 was under 100 nM.

As to `COc1c(OCC2CN(C)CCO2)ccc2c1N=C(NC(=O)c1cccnc1)N1CCN=C21` (centres unmarked) [Example 23, N-{7-methoxy-8-[(4-methylmorpholin-2-yl)methoxy]-2,3-dihydroimidazo[1,2-c]quinazolin-5-yl}nicotinamide], the IC50 is under 100 nM.

With `COc1c(OCCCN2CCOCC2)ccc2c1N=C(NC(=O)c1cncn1C)N1CCN=C21` [Example 30, N-[7-methoxy-8-(3-morpholin-4-ylpropoxy)-2,3-dihydroimidazo[1,2-c]quinazolin-5-yl]-1-methyl-1H-imidazole-5-carboxamide], the IC50 was in the range of 100 to 1000 nM.

In the case of `COc1c(OCCCN2CCOCC2)ccc2c1N=C(NC(=O)c1ccc(N)nc1C)N1CCN=C21` [Example 31, 6-amino-N-[7-methoxy-8-(3-morpholin-4-ylpropoxy)-2,3-dihydroimidazo[1,2-c]quinazolin-5-yl]-2-methyl nicotinamide], the half-inhibitory concentration (IC50) was under 100 nM.

As for `COc1c(OCCCN2CCOCC2)ccc2c1N=C(NC(=O)c1cnc(N)nc1C)N1CCN=C21` [Example 32, 2-amino-N-[7-methoxy-8-(3-morpholin-4-ylpropoxy)-2,3-dihydroimidazo[1,2-c]quinazolin-5-yl]-4-methylpyrimidine-5-carboxamide], the IC50 is under 100 nM.

For the molecule `COc1c(OCCCN2CCOCC2)ccc2c1N=C(NC(=O)c1cnc(N)c(Br)c1)N1CCN=C21` [Example 33, 6-amino-5-bromo-N-[7-methoxy-8-(3-morpholin-4-ylpropoxy)-2,3-dihydroimidazo[1,2-c]quinazolin-5-yl]nicotinamide], the IC50 is under 100 nM.

On to `COc1c(OCCCN2CCOCC2)ccc2c1N=C(NC(=O)c1cnc(N)o1)N1CCN=C21` [Example 34, 2-amino-N-[7-methoxy-8-(3-morpholin-4-ylpropoxy)-2,3-dihydroimidazo[1,2-c]quinazolin-5-yl]-1,3-oxazole-5-carboxamide], for which the IC50 lay within 100 to 1000 nM.

For `COc1c(OCC2CNCCO2)ccc2c1N=C(NC(=O)c1cccnc1)N1CCN=C21` (centres unmarked) [Example 35, N-[7-methoxy-8-(morpholin-2-ylmethoxy)-2,3-dihydroimidazo[1,2-c]quinazolin-5-yl]nicotinamide], the IC50 was under 100 nM.

With `COc1c(OCCCN(C)C)ccc2c1N=C(NC(=O)c1cnc(NCCN(C)C)nc1)N1CCN=C21` [Example 36, 2-{[2-(dimethylamino)ethyl]amino}-N-{8-[3-(dimethylamino)propoxy]-7-methoxy-2,3-dihydroimidazo[1,2-c]quinazolin-5-yl}pyrimidine-5-carboxamide], the IC50 lay in the range of 100 to 1000 nM.

As for `COc1c(OCCCN(C)C)ccc2c1N=C(NC(=O)c1cnc(N)s1)N1CCN=C21` [Example 37, 2-amino-N-{8-[3-(dimethylamino)propoxy]-7-methoxy-2,3-dihydroimidazo[1,2-c]quinazolin-5-yl}-1,3-thiazole-5-carboxamide], the 50% inhibitory concentration (IC50) was under 100 nM.

In the case of `COc1c(OCCCN2CCOCC2)ccc2c1N=C(NC(=O)c1cnc(NCCO)nc1)N1CCN=C21` [Example 40, 2-[(2-hydroxyethyl)amino]-N-[7-methoxy-8-(3-morpholin-4-ylpropoxy)-2,3-dihydroimidazo[1,2-c]quinazolin-5-yl]pyrimidine-5-carboxamide], the IC50 is 100 to 1000 nM.

In the case of `COc1c(OCCCN(C)C)ccc2c1N=C(NC(=O)c1cnc(N)nc1)N1CCN=C21` [Example 42, 2-amino-N-{8-[3-(dimethylamino)propoxy]-7-methoxy-2,3-dihydroimidazo[1,2-c]quinazolin-5-yl}pyrimidine-5-carboxamide], the IC50 was under 100 nM.

For the molecule `COCCNc1ncc(C(=O)NC2=Nc3c(ccc(OCCCN4CCOCC4)c3OC)C3=NCCN23)cn1` [Example 44, 2-[(2-methoxyethyl)amino]-N-[7-methoxy-8-(3-morpholin-4-ylpropoxy)-2,3-dihydroimidazo[1,2-c]quinazolin-5-yl]pyrimidine-5-carboxamide], the concentration for half-maximal inhibition (IC50) was over 1000 nM.

With `COc1c(OCCCN2CCOCC2)ccc2c1N=C(NC(=O)c1cnc(NCCN(C)C)nc1)N1CCN=C21` [Example 45, 2-{[2-(dimethylamino)ethyl]amino}-N-[7-methoxy-8-(3-morpholin-4-ylpropoxy)-2,3-dihydroimidazo[1,2-c]quinazolin-5-yl]pyrimidine-5-carboxamide], the IC50 was 100 to 1000 nM.

Source of the values: patent USRE46856E1, “Substituted 2,3-dihydroimidazo[1,2-c]quinazoline derivatives useful for treating hyper-proliferative disorders and diseases associated with angiogenesis” (Bayer Intellectual Property GmbH, priority 2006, dated 2018).
